Where a SMILES comes first, the peptide text is derived from it. The star is where a group is joined. βNA = c1ccc2cc(N*)ccc2c1
Tests used:
[1] = system: primary murine bone marrow-derived macrophages (BMMs); assay: Oxygen consumption rate (Seahorse) in bone marrow-derived macrophages; assay type: cell-based
[2] = system: HEK293 cells with YFP-Gal fusion; assay: YFP-Galectin puncta formation by high content microscopy; assay type: cell-based; details: 100 μM, 1h
From the text: Data, means±SD; n=1000 cells per condition; n>3; ANOVA, Tukey's t test vs. control, *p<0.05.**p<0.01.
a) Screen set up. […] Given that the endomembrane damage protection is a highly conserved process, we will use stable (Flp-In) YFP-Gal8 and YFP-Gal9 293A cells. […] In THP-1 cells, we will use endogenous Gal8 and Gal9 responses to lysosomal damage control. […] Quantification of target 1 (Gal8) and target II (Gal9) intracellular objects (Gal8 puncta) will be done by automated HC microscopy on our Cellomics Array Scanner system and processed, as we have recently published^99. We will use in primary tests parameters of 20 fields per well and >500 valid primary objects per well, corresponding to parameters that follow Z values of >0.5^155 in positive controls (100 μM GPN; 2 mM LLOMe) vs. negative controls (DMSO). For secondary tests of positive hits, 49 field/plate will be examined.

[3] = system: HeLa cells; assay: High content microscopy of LC3 and ubiquitin puncta after lysosomal damage; assay type: cell-based
Experimental: (§1) High content microscopy with automated image acquisition and quantification was carried out using a Cellomics HCS scanner and iDEV software (Thermo) in 96-well plates (Mandell et al., 2014). Immunofluorescence confocal microscopy was performed using an LSM510 confocal microscope and Zeiss software package. For quantification of puncta or total cell fluorescence, image J was used as described previously (Chauhan et al., 2015). For quantifying cell death, HeLa and derivative cells treated with 15 μM siramesine for 12 h were incubated with 7AAD (BD Pharmingen™; cat #559925) for 30 min and fluorescence of 7AAD bound to nuclear DNA measured in a flow cytometer.

[4] = system: TFEB; assay: High content analysis of TFEB nuclear translocation; assay type: cell-based; details: HeLa cells, lysosomal damage
Experimental: as §1

[5] = system: mTOR; assay: S6K1 phosphorylation (mTOR target) immunoblot in HeLa cells; assay type: cell-based; details: 1 mM, 2h
Experimental: (§2) Immunoblots and co-IPs assays for endogenous or exogenously expressed proteins were carried out as described previously (Chauhan et al., 2015). For immunoprecipitation experiments with exogenously expressed proteins, 293T cells were transfected with 5 μg of expression constructs by calcium phosphate for 24 h and lysed on ice using NP-40 buffer (Invitrogen) containing protease inhibitor cocktail (Roche, cat #11697498001) and […] (Sigma, cat #93482). Lysates were mixed with antibody (2-3 μg) incubated at 4° C. for 2 h followed by incubation with protein G Dynabeads (Life technologies) for 2 h at 4° C. Beads were washed four times with PBS and then boiled with SDS-PAGE buffer for analysis of interacting protein by Immunoblotting. Input lanes contained 10% of material unless otherwise indicated.

[6] = system: DEPTOR; assay: DEPTOR levels in extracts of HeLa cells; assay type: cell-based; details: 1 mM, 2h
Experimental: as §2

[7] = system: HeLa cells; assay: Cell death by 7AAD nuclear staining, flow cytometry; assay type: cell-based
Experimental: as §1

[8] = system: THP-1 cells; assay: Confocal microscopy of TRIM16 puncta in THP-1 cells; assay type: cell-based; details: 0.5 mM
Experimental: as §1

[9] = system: Mtb Erdman; design: species or system C57BL/6J mice; details: mouse, in vivo
[10] = system: THP-1 macrophages; assay: Galectin puncta formation in THP-1 macrophages; assay type: cell-based; details: 250 μM, 2h
[11] = system: THP-1 macrophages; assay: Lysosomal damage readouts (cathepsin B activity, LysoTracker Red) in THP-1 macrophages; assay type: cell-based
[12] = system: AMPK; assay: AMPK activation response in THP-1 macrophages; assay type: cell-based; details: cells KD for Gal9
[13] = Blood levels of rapamycin by mass spectrometry in mice on eRAPA chow; details: 42 ppm eRAPA dose in chow; n=8 animals, mean±SD (±35 ng/ml)
[14] = system: HeLa cells; assay: Confocal microscopy of TRIM16 puncta in HeLa cells; assay type: cell-based
Experimental: as §1

[15] = system: HeLa cells; details: Petersen et al., 2013; cited from earlier work

SMILES: NCC(=O)N[C@@H](Cc1ccccc1)C(=O)Nc1ccc2ccccc2c1 [GPN, Gly-Phe-naphthylamide] (H-Gly-Phe-βNA)
- oxygen consumption rate (OCR) [1]: alters
- cytoplasmic Galectin puncta formation response [2]: Gal3, Gal8 and Gal9 give the most robust response

SMILES: COC(=O)[C@H](CC(C)C)NC(=O)[C@@H](N)CC(C)C [LLOMe, Leu-Leu-O-Me]
- LC3 response (endogenous LC3B puncta) [3]: consistent LC3 dose response
- abundance of ubiquitin puncta ([3]; high content microscopy): Dose-dependent increase
- TFEB translocation to the nucleus [4]: translocated to the nucleus
- mTOR activity (S6K1 phosphorylation) [5]: inhibited
- cellular DEPTOR level [6]: increased
- lysosomal cell death ([7]; HeLa cells): cannot cause significant lysosomal cell death
- TRIM16 puncta formation in leukocytes [8]: morphologically prominent

SMILES: Nc1c(Br)cc(Br)cc1CN[C@H]1CC[C@H](O)CC1 [ambroxol]
- effect on Mtb lung CFU in combination with rifampicin [9]: synergism

SMILES: CN(C)C(=N)N=C(N)N [metformin]
- Galectin puncta formation [10]: causes Gal3, Gal8, and Gal9 puncta formation
- LysoTracker Red stain ([11]; THP-1 macrophages): Reduction
- lysosomal cathepsin B activity ([11]; THP-1 macrophages): loss of activity
- lysosomal damage ([11]; preliminary studies): causes lysosomal damage
- AMPK activation [12]: Gal9-dependent AMPK activation

SMILES: CO[C@H]1C[C@@H]2CC[C@@H](C)[C@@](O)(O2)C(=O)C(=O)N2CCCC[C@H]2C(=O)O[C@H]([C@H](C)C[C@@H]2CC[C@@H](O)[C@H](OC)C2)CC(=O)[C@H](C)/C=C(\C)[C@@H](O)[C@@H](OC)C(=O)[C@H](C)C[C@H](C)/C=C/C=C/C=C/1C [rapamycin]
- blood levels of rapamycin [13]: 205 ng/mL

SMILES: Fc1ccc(-n2cc(CCCCN3CCC4(CC3)OCc3ccccc34)c3ccccc32)cc1 [siramesine]
- sensitivity to cell death in TRIM16KO HeLa cells vs HeLa ([7]; 15 μM, 12 h, 7AAD): increased sensitivity to cell death
- TRIM16 puncta formation in HeLa cells [14]: formation of TRIM16 puncta that colocalized with LC3B
- cell death in HeLa cells (literature) [15]: can promote cell death
